Measurements from US10188110B2 (TELEFLEX MEDICAL INCORPORATED, priority 2010, dated 2019).
Structures can show the parent of a compound that is named as a salt. Where two headings read alike, the source gives them in different places.

What was measured:
S. aureus = details: for S. Aureus Avg. ZOI, HCl Alone: Table 8
Procedure: (§1) Agar plates and cultures of S. aureus, P. aeruginosa, and Enterobacter aerogenes (E. aerogenes) were set up as described in EXPERIMENT 8. […] Cultures were diluted to 1×10^8 CFU/ml.
(§2) From each of the test solution, 20 μL was then dispensed over the Kirby Bauer diffusion disks. The disks were air dried for five minutes and using forceps applied over the agar plates. Plates were then incubated for 24 hours at 37° C. Subsequently the zones of inhibition were measured, in millimeters (mm) using calipers. Each test was run in triplicate.

[1] = system: Enterobacter aerogenes (E. aerogenes); experiment: Kirby-Bauer disk diffusion in HCl agar; assay type: cell-based; details: for E. aerogenes Avg. ZOI: 5-FU 256 ppm
Procedure: as §1, §2

[2] = system: S. aureus and P. aeruginosa; details: HCl Conc. 0.001 M, Table 7
Procedure: as §1, §2

[3] = system: S. aureus and P. aeruginosa
Source text: One centimeter long catheter segments were cut from Multi-lumen Central Venous Catheters (CVC) from Rifampin and Minocycline impregnated CVCs (Rif/Mino). Cultures of S. aureus and P. aeruginosa were started in Muller Hinton Broth. For each organism, concentration of the inoculum was adjusted to 1×10^8 CFU/ml using 0.5 McFarland standard. […] Plates were sneaked with a single organism using a sterile cotton applicator that was dipped into the broth culture. Using sterile forceps, 1 cm long catheter segments from the control and Rif/Mino catheters were vertically inserted into the agar. Plates were then incubated for 24 hours at 37° C. Each test was run in triplicate. Subsequently the zones of inhibition (ZOI) were measured, in millimeters (mm) using calipers and the three ZOI measurements for each test were averaged.

Compound	S. Aureus Avg. ZOI (S. aureus; 5-FU 8 ppm, HCl Conc. 0 M) [mm]	S. Aureus Avg. ZOI (S. aureus; 5-FU 8 ppm, HCl Conc. 0.001 M) [mm]	S. Aureus Avg. ZOI (S. aureus; 5-FU 8 ppm, HCl Conc. 0.01 M) [mm]	S. Aureus Avg. ZOI (S. aureus; 5-FU 16 ppm, HCl Conc. 0 M) [mm]	S. Aureus Avg. ZOI (S. aureus; 5-FU 16 ppm, HCl Conc. 0.001 M) [mm]	S. Aureus Avg. ZOI (S. aureus; 5-FU 16 ppm, HCl Conc. 0.01 M) [mm]	E. aerogenes Avg. ZOI ([1]; HCl Conc. 0 M) [mm]	E. aerogenes Avg. ZOI ([1]; HCl Conc. 0.01 M) [mm]	effect of HCl on inhibition ([1]; HCl concentration of 0.01 M)	S. Aureus Avg. ZOI, HCl Alone (S. aureus; HCl Conc. 0.001 M) [mm]	S. Aureus Avg. ZOI, HCl Alone (S. aureus; HCl Conc. 0.01 M) [mm]	Avg. ZOI HCl Alone [2] [mm]	E. aerogenes Avg. ZOI, HCl Alone ([1]; HCl Conc. 0.01 M, Table 9) [mm]	Avg. ZOI HCl Alone ([3]; HCl Conc. 0.001 M, Table 6) [mm]	highest HCl concentration that allowed formation of a confluent lawn of organisms ([3]; Muller Hinton Agar plates) [M]
O=c1[nH]cc(F)c(=O)[nH]1 [5-FU, 5-Fluorouracil]	0.0	0.0	13.8	10.0	11.5	21.4	16.15	18.95	enhanced inhibition	–	–	–	–	–	–
Cl [HCl, hydrochloric acid]	–	–	–	–	–	–	–	–	–	0	0	0	0	0	0.01
